Assay results reported in patent publication US20080040819A1, “Methods of identifying agents for treatment of schizophrenia and related disorders” (Wyeth, priority 2006, published 2008).
Where two headings read alike, the source gives them in different places.

Tests used:
GPR88 KO and WT mice [1] = assay: Phencyclidine-stimulated locomotor hyperactivity; type: in vivo
[2] = molecular target: T1, striatal dopamine D2 receptors (Mus musculus, UniProt P61168); assay: [^3H]spiperone binding to striatal membrane preparations; design: species or system mice; conditions: pool of 10
T1 construct: from tissue; host or cells: mouse striatum (membrane preparation / homogenate)
Procedure: Striata from 10 mice (male and female, WT & GPR88 KO) were pooled and homogenized in a motor-driven POLYTRON™ homogenizer (Kinematica AG, Newark, N.J.) at setting six for 10 seconds in 3 mL per 100 mg of wet tissue in 50 mM Tris-HCl buffer, pH 7.4, containing 120 mM NaCl, 5 mM KCl, 1.5 mM CaCl2, 4 mM MgCl2, and 1 mM EDTA. […] The binding of each concentration of radioligand was determined in duplicate. Incubations were carried out at room temperature for 120 minutes. The final concentration of the membrane protein in each binding assay was approximately 70 μg/ml. Butaclamol (+), (10 μM), (Sigma-Aldrich, St. Louis, Mo.) was used to define the nonspecific binding. The incubations were terminated by rapid filtration using a Wallac Tomtec harvester (Waltham, Mass.) and buffer-presoaked glass fiber filter mats (GF/B, Whatman Inc. Florham Park, N.J.). […] The radioactivity of the filters was then counted in a Wallac 1205 scintillation counter (Perkin Elmer Life and Analytical Sciences).
The estimates of Bmax (the number of available binding receptors) and Kd (the dissociation constant) were calculated by fitting the specific binding data with nonlinear regression using GraphPad PRISM™ data analysis software (GraphPad Software, San Diego, Calif.).

GPR88 KO and WT mice [3] = assay: Amphetamine-stimulated locomotor hyperactivity; type: in vivo; conditions: 3 mg/kg i.p., 40-90 min
Procedure: The amphetamine-stimulated locomotor hyperactivity assay is another type of assay to model the neuropathological states in schizophrenia, similar to the hyperdopaminergia in the ventral striatum. To measure spontaneous activity and amphetamine-stimulated locomotor hyperactivity, the mice were individually placed in Opto-Veramax-3 monitor cages (Columbus Instruments, Columbus, Ohio) and allowed to habituate for 30 minutes with room light and white noise on. After habituation, each mouse was injected with amphetamine (AMPH, 3 mg/kg) in the intraperitoneum. During the first 30 minutes, the spontaneous activity was recorded every 10 minutes. After amphetamine administration, amphetamine-stimulated locomotor hyperactivity was measured every 10 minutes over a 60 minutes time span by the activity monitor. Accuscan Versamax and Versadat software (Columbus Instruments, Columbus, Ohio) were used to convert the infrared beam breaks into horizontal activity counts. […] Males and females were analyzed separately.

striatal dopamine = assay: In vivo striatal microdialysis; conditions: 3 mg/kg i.p., male and female GPR88 KO and WT mice, dialysates for 3 hours
Procedure: Chromatographic separations were performed using a Capcell PAK™, Strong Cation Exchange columns (5 μm UG80, 1.5×150 mm; Shiseido, Phenomenex, USA). The mobile phase comprised (mM) 13 Na2HPO4, 87 NaH2PO4, 0.1 EDTA and 20% methanol, was adjusted to pH 6 and delivered at 0.2 ml/minutes at 40° C.

GPR88 KO and WT mice [4] = assay: Apomorphine-induced climbing and stereotypy; type: in vivo
Procedure: The GPR88 KO and WT mice were acclimated to a wire cage (cylindrical ½″×½″ mesh with the dimensions of 4½″ d×5½″ h) for at least 2 hours before testing to allow proper habituation. […] (+ present, − absent). Readings were repeated every 5 minutes during a 30-minute test session.
The behavioral assessment was conducted over three conditions in succession: (1) an evaluation of the response to a subcutaneous vehicle (0.25% TWEEN® 80) injection to establish a baseline; (2) followed by an evaluation of the response to a dose of 0.3 mg/kg subcutaneous apomorphine injection; (3) followed by an evaluation of the response to 1 mg/kg subcutaneous apomorphine injection. Behavioral observation began 5 minutes after each injection. Vehicle was given at T0 minutes with observational assessment from T5-T35 minutes and habituation followed from T35-T65 minutes.
At T65, the 0.3 mg/kg dose of apomorphine was administered. Behavioral observation for the 0.3 mg/kg dose of apomorphine was from T70-T100, followed by another habituation from T100-T130 minutes.
At T130 min, the 1.0 mg/kg dose of apomorphine was administered and then the mice were scored from T135-T165 min. For each subject, the climbing scores were totaled for each observational period (maximum=12 per animal). Stereotypy scores were also summed up (maximum=6 per animal). […] Males and females were analyzed separately.

dopamine D2 receptors = dopamine D2 receptors (Mus musculus, UniProt P61168); conditions: 1 mM dopamine, striatal membranes
Procedure: Briefly, striata were collected from the mice (9 GPR88 KO or WT) and frozen at 80° C. until use. The tissue was homogenized in 1:100 volume (wet weight/volume) of ice-cold K-HEPES buffer (20 mM, pH=7.6), containing 7 mM of MgCl2, 100 mM of NaCl, 1 mM of EDTA, and 1 mM of DTT (buffer A), and centrifuged at 45,000 g for 10 minutes at 4° C. The membrane pellet was resuspended in 100 volumes (w/v) of fresh buffer A and re-centrifuged under the same conditions.
The incubation was started by addition of [^35S]GTPγS (final concentration 0.5 nM) and proceeded for 90 minutes at 30° C. The assay was terminated by filtration through a filter plate (GF/B, Perkin Elmer Life and Analytical Sciences) with five washings of cold buffer A (350 μl). The filter plate was air-dried and the radioactivity content of the filters was counted in 25 μl scintillation cocktail MICROSCINT™ 20 (Perkin Elmer Life and Analytical Sciences) by a Perkin Elmer TopCount NXT scintillation counter.

GPR88 KO and WT mice [5] = assay: Antipsychotic block of apomorphine-induced climbing and stereotypy; type: in vivo
Procedure: Observation and scoring for climbing and stereotypy were performed as described in Example 6. […] Males and females were analyzed separately. […] For graphical representation, the data was normalized to the amount of climbing and stereotypy shown by the vehicle treated control group.

GPR88 KO and WT mice [6] = assay: Haloperidol-induced catalepsy; type: in vivo; conditions: 1 mg/kg i.p., 30-120 minutes, male and female mice
Procedure: Maintenance of this position was considered catalepsy. […] Males and females were analyzed separately.

GPR88 KO and WT mice [7] = conditions: 0.54 mg/kg i.p. 30 minutes before testing, PPI averaged across 3 dB levels
Procedure: To detect potential phenotypic deficits in the GPR88 knockout mice, they were first evaluated for startle habituation. In brief, mice were tested using the SR-LAB (San Diego Instruments, San Diego, Calif.) system. Each system consists of a ventilated sound attenuated chamber containing a stabilimeter consisting of a Plexiglas cylinder (12.5 cm length, 3.5 cm diameter) mounted on a Plexiglas frame. Acoustic stimuli were delivered through a speaker mounted in the enclosure ceiling, that was 27 cm above the cylinder. Startle responses were transduced by a piezoelectric accelerometer mounted beneath the frame. Output signals were digitized and rectified as consecutive 1-millisecond (msec) readings (a total of 65 were recorded, and startle response was expressed as an averaged response across these samples) on a computer using the San Diego Instrument software. Mice were placed individually in the chamber for a 5-minute acclimation period at a background noise level of 64 dB.
Prepulse inhibition was measured immediately following the startle sensitivity test. […] Percentage prepulse inhibition was calculated as 100 minus the ratio of the average startle response observed at each prepulse+pulse trial relative to the pulse alone stimulus, times 100. The percentage prepulse at across dB levels was analyzed by repeated-measures ANOVA. […] Males and females were analyzed separately. […]

[8] = GPR88 KO and WT female mice, 0.3 mg/kg haloperidol
[9] = male WT mice, 0.54 and 1.0 mg/kg haloperidol

T1 sequence (P61168 whole entry): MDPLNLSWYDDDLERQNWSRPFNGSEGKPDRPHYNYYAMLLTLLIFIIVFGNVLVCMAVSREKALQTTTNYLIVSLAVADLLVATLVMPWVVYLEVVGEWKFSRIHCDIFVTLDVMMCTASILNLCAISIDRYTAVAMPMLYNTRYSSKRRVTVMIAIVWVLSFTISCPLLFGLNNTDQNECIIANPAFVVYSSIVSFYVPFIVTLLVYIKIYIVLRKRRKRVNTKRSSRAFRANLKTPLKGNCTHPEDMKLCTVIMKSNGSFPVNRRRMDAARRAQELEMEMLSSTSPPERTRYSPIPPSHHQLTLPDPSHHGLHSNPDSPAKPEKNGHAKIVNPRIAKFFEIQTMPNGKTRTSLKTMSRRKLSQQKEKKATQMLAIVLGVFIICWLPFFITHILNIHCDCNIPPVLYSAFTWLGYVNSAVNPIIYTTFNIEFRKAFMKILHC
Sequence of dopamine D2 receptors (P61168 whole entry): as above

c1ccc(C2(N3CCCCC3)CCCCC2)cc1 [PCP, phencyclidine]
PCP-stimulated locomotor activity (GPR88 KO and WT mice [1]; female WT and GPR88 KO mice, 1.0 mg/kg): Neither of the genotypes responded
PCP-stimulated locomotor activity (GPR88 KO and WT mice [1]; female WT and GPR88 KO mice, 1.7 mg/kg or 3.0 mg/kg): increased locomotor activity
PCP-stimulated locomotor activity (GPR88 KO and WT mice [1]; male WT and GPR88 KO mice, highest dose 3 mg/kg i.p.): increased locomotor activity
PCP-stimulated locomotor activity (GPR88 KO and WT mice [1]; male WT and GPR88 KO mice, lower doses (1.0, 1.7 mg/kg)): Neither of the genotypes responded

O=C(CCCN1CCC2(CC1)C(=O)NCN2c1ccccc1)c1ccc(F)cc1 [[^3H]spiperone]
Bmax (number of available binding receptors) ([2]; striatal membranes of GPR88 KO mice): 1.83 pmol/mg
Bmax (number of available binding receptors) ([2]; striatal membranes of WT mice): 1.34 pmoles/mg protein

CC(N)Cc1ccccc1 (centres unmarked) [amphetamine]
locomotor activity after amphetamine administration (GPR88 KO and WT mice [3]; GPR88 KO male mice): significant increase in activity
locomotor activity after amphetamine administration (GPR88 KO and WT mice [3]; female mice): significant increase in activity
striatal extracellular dopamine after amphetamine (striatal dopamine): significant and equal increase in dopamine

CN1CCc2cccc3c2[C@H]1Cc1ccc(O)c(O)c1-3 [apomorphine]
apomorphine-induced climbing scores, dose effect (GPR88 KO and WT mice [4]; female GPR88 KO and WT mice, 1 mg/kg s.c.): the most climbing
apomorphine-induced stereotypy scores, dose effect (GPR88 KO and WT mice [4]; male GPR88 KO and WT mice, 1 mg/kg s.c.): maximal stereotypy
apomorphine-induced climbing scores, dose effect (GPR88 KO and WT mice [4]; male GPR88 KO and WT mice, vehicle, 0.3 and 1 mg/kg s.c.): climbing increasing with the dose

NCCc1ccc(O)c(O)c1 [dopamine]
stimulation of [^35S]GTPγS binding in GPR88 KO mice relative to WT mice (dopamine D2 receptors): twice

O=C(CCCN1CCC(O)(c2ccc(Cl)cc2)CC1)c1ccc(F)cc1 [haloperidol]
block of apomorphine-induced climbing (GPR88 KO and WT mice [5]; [8]): full block of climbing
block of apomorphine-induced stereotypy (GPR88 KO and WT mice [5]; [8]): full block of stereotypy
minimal effective dose, apomorphine-induced climbing and stereotypy assay (summary) (GPR88 KO and WT mice [5]; GPR88 KO male mice): 0.54 mg/kg
minimal effective dose, apomorphine-induced climbing and stereotypy assay (summary) (GPR88 KO and WT mice [5]; WT male mice): < 0.3 mg/kg
block of apomorphine-induced climbing (GPR88 KO and WT mice [5]; male GPR88 KO mice, 1.0 mg/kg haloperidol): full block of climbing
block of apomorphine-induced climbing (GPR88 KO and WT mice [5]; [9]): full block of climbing
block of apomorphine-induced stereotypy (GPR88 KO and WT mice [5]; [9]): full block of stereotypy
catalepsy (percentage of maximum possible catalepsy), GPR88 KO versus WT (GPR88 KO and WT mice [6]): equivalent levels of catalepsy

Cc1nc2n(c(=O)c1CCN1CCC(c3noc4cc(F)ccc34)CC1)CCCC2 [risperidone]
percentage prepulse inhibition (PPI), treatment versus vehicle (GPR88 KO and WT mice [7]; male GPR88 KO mice): increasing PPI over untreated
percentage prepulse inhibition (PPI), treatment versus vehicle (GPR88 KO and WT mice [7]; male WT mice): increasing PPI over untreated
